Conditions: Sprague–Dawley rats

Vz | exposure | oral bioavailability (%F) | SMILES
exceptionally large | extremely poor exposure |  | CN(C)[C@@H]1C(O)=C(C(N)=O)C(=O)[C@@]2(O)C(O)=C3C(=O)c4c(c(F)c5ccc(CN6CCC6)cc5c4O)C[C@H]3C[C@@H]12 [19c-5, (4S,4aS,5aR,14aS)-10-(Azetidin-1-ylmethyl)-4-(dimethylamino)-7-fluoro-3,12,14,14a-tetrahydroxy-1,13-dioxo-1,4,4a,5,5a,6,13,14a-octahydropentacene-2-carboxamide]
 |  | almost no oral bioavailability | CN(C)c1cc(NC(=O)CNC(C)(C)C)c(O)c2c1C[C@H]1C[C@H]3[C@H](N(C)C)C(O)=C(C(N)=O)C(=O)[C@@]3(O)C(O)=C1C2=O [tigecycline, reference compound]
